Several values for one entry are separate records, joined by “and”; a condition that tells them apart may be missing. Identical values can stand only once.
Experiments:
Type in all cases: cell-based, human
[1] = test system: Flag-BCL-xL WT or mutants; experiment: Polyubiquitination assay (Flag IP, HA-Ub blot), BCL-xL; conditions: 293T cells, MG132 10 µM pretreatment, 753b 0.1 µM, 5 h
From the text: K16-only, K20-only, and K87-only represent that all the surface lysines on BCL-xL are mutated to arginines except K16, K20, and K87, respectively. Representative immunoblots of Flag-BCL-xL WT and mutants are shown in the top panel. […] K17R and K22R represents that K17 and K22 on BCL-2 are respectively mutated to arginine; K17/22R means both K17 and K22 on BCL-2 are mutated to arginine. Representative immunoblots of Flag-BCL-2 WT and mutants are shown in the top panel. The quantification of the relative Flag-BCL-xL or Flag-BCL-2 protein content in the immunoblots is presented as mean values ± s.e.m. (n = 3 biologically independent experiments) in the bottom panel. […] After 36 h, cells were pre-treated with MG132 (10 µM) for 2 h and then treated with or without 753b (0.1 µM for BCL-xL and 1 uM for BCL-2) for 5 h. The Flag-tagged proteins were immunoprecipitated (IP) and immunoblotted with HA or Flag antibody. The input results are shown in Supplementary Fig. 9. Data are a representative of two independent experiments. Source data are provided as a Source data file.
Proteins were extracted by using IP lysis buffer (Cat. No. 87788, Thermal Fisher Scientific) and IP was performed using Anti-FLAG M2 Magnetic Beads (Cat. No. M8823, Sigma-Aldrich) according to the manufacturer’s protocol. […]

[2] = test system: BCL-2/PROTAC/VCB ternary complex (HiBit-BCL-2, HaloTag-VHL); experiment: NanoBRET intracellular ternary complex formation in 293T cells, BCL-2; conditions: for nanoBRET ratio (610/450, background-subtracted), Ave, Bcl-2: Ave of Read2 and Read3; for nanoBRET ratio (610/450, background-subtracted), Ave, Bcl-2 / nanoBRET ratio (610/450, background-subtracted), Read2, Bcl-2 / nanoBRET ratio (610/450, background-subtracted), Read3, Bcl-2: triplicate wells
Summary of the method: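 293T cells were transfected with HiBit-BCL-xL or HiBit-BCL-2 plus HaloTag-VHL and incubated overnight with or without HaloTag NanoBRET 618 ligand in 4% FBS Opti-MEM. Serially diluted compounds were applied for 6 h at 37 °C. mBRET ratio from donor emission (450/50 nm) and acceptor emission (610 nm longpass) after Nano-Glo substrate.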

BCL2L1 mRNA = experiment: RT-qPCR of BCL2L1 mRNA in 293T cells; conditions: for BCL2L1 relative mRNA level: single replicate, relative to 0 uM control, Supplementary Fig. 7a
Method: (§1) Total RNA was extracted using RNeasy Plus Mini Kit (Qiagen, Cat. No. 74134). Reverse transcription was carried out by using High Capacity cDNA Reverse Transcription Kit (Invitrogen). Quantitative PCR (qPCR) was performed using an QuantStudioTM 5 Real-Time PCR System with SYBR Green. […] The PCR amplification protocol was initiated at 50 °C for 2 min followed by 3 min at 95 °C and 40 PCR cycles consisting of 5 s at 95 °C followed by 60 °C for 30 s. All samples were tested with the reference gene GAPDH for data normalization to correct for variations in RNA quality and quantity. The specificity of amplification of targets with high Ct values was confirmed by analysis of the temperature dissociation curves. Primers used for measuring gene transcriptional level: GAPDH primers (forward [NT] and reverse [NT]) were described previously. BCL2L1 primers are forward [NT] and reverse [NT]; BCL2 primers are forward [NT] and reverse[NT]. Supplementary Fig. 8. […] Hela cells were treated with different concentrations 753b for 16 h with or without the pan-caspase inhibitor QVD pretreatment. Representative immunoblots are shown in c-e. β-actin was used as an equal loading control in all immunoblot analyses. Source data are provided as a Source Data file.

BCL2 mRNA = experiment: RT-qPCR of BCL2 mRNA in 293T cells; conditions: for BCL2 relative mRNA level: single replicate, relative to 0 uM control, Supplementary Fig. 7a
Method: as §1

Compound | nanoBRET ratio (610/450, background-subtracted), Ave, Bcl-2 ([2]; 0.004 uM) | nanoBRET ratio (610/450, background-subtracted), Read2, Bcl-2 ([2]; 0.004 uM) | nanoBRET ratio (610/450, background-subtracted), Read3, Bcl-2 ([2]; 0.004 uM) | nanoBRET ratio (610/450, background-subtracted), Ave, Bcl-2 ([2]; 0.012 uM) | nanoBRET ratio (610/450, background-subtracted), Read2, Bcl-2 ([2]; 0.012 uM) | nanoBRET ratio (610/450, background-subtracted), Read3, Bcl-2 ([2]; 0.012 uM) | nanoBRET ratio (610/450, background-subtracted), Ave, Bcl-2 ([2]; 0.111 uM) | nanoBRET ratio (610/450, background-subtracted), Read2, Bcl-2 ([2]; 0.111 uM) | nanoBRET ratio (610/450, background-subtracted), Read3, Bcl-2 ([2]; 0.111 uM) | nanoBRET ratio (610/450, background-subtracted), Ave, Bcl-2 ([2]; 0.333 uM) | nanoBRET ratio (610/450, background-subtracted), Read2, Bcl-2 ([2]; 0.333 uM) | nanoBRET ratio (610/450, background-subtracted), Read3, Bcl-2 ([2]; 0.333 uM) | nanoBRET ratio (610/450, background-subtracted), Ave, Bcl-2 ([2]; 1 uM) | nanoBRET ratio (610/450, background-subtracted), Read2, Bcl-2 ([2]; 1 uM) | nanoBRET ratio (610/450, background-subtracted), Read3, Bcl-2 ([2]; 1 uM) | nanoBRET ratio (610/450, background-subtracted), Ave, Bcl-2 ([2]; 3 uM) | nanoBRET ratio (610/450, background-subtracted), Read2, Bcl-2 ([2]; 3 uM) | nanoBRET ratio (610/450, background-subtracted), Read3, Bcl-2 ([2]; 3 uM) | further results
Cc1ncsc1-c1ccc([C@H](C)NC(=O)[C@@H]2C[C@@H](O)CN2C(=O)[C@@H](NC(=O)CCCCCCC(=O)N2CCN(C[C@]3(C)CCC(c4ccc(Cl)cc4)=C(CN4CCN(c5ccc(C(=O)NS(=O)(=O)c6ccc(N[C@H](CCN7CCOCC7)CSc7ccccc7)c(S(=O)(=O)C(F)(F)F)c6)cc5)CC4)C3)CC2)C(C)(C)C)cc1 [753b] | 4.377 and 3.959 and 4.565 | 4.539 and 4.475 and 4.818 | 4.215 and 3.442 and 4.311 | 5.266 and 5.391 and 5.383 | 5.627 and 5.5043 and 5.572 | 4.906 and 5.278 and 5.194 | 8.153 and 8.77 and 8.375 | 8.4844 and 9.173 and 8.444 | 7.821 and 8.367 and 8.306 | 10.2466 and 9.352 and 9.108 | 10.4847 and 9.4698 and 9.325 | 10.0085 and 9.234 and 8.89 | 9.221 and 9.808 and 9.597 | 8.91 and 9.99 and 9.879 | 9.531 and 9.627 and 9.314 | 10.0388 and 9.727 and 10.2545 | 10.3731 and 9.71 and 10.9724 | 9.704 and 9.745 and 9.537 | polyubiquitination of BCL-xL WT and mutants (in words) [1]: induces polyubiquitination of WT, K20-only, and K87-only BCL-xL, but not K16-only BCL-xL; intracellular ternary complex formation with BCL-2 (in words) ([2]; NanoBRET, 293T cells, 6 h): much higher activity to induce the ternary complex formation with both BCL-xL and BCL-2 relative to 753a; mRNA level of BCL2L1 (in words) (BCL2L1 mRNA; 293T cells, 16 h, qPCR): no significant changes; BCL2L1 relative mRNA level (BCL2L1 mRNA; Conc 0.01 uM): 1.14 and 1.075 and 1.07; BCL2L1 relative mRNA level (BCL2L1 mRNA; Conc 0.03 uM): 0.9425 and 1.0957 and 1.098; BCL2L1 relative mRNA level (BCL2L1 mRNA; Conc 0.1 uM): 1.074 and 0.5752 and 1.058; BCL2L1 relative mRNA level (BCL2L1 mRNA; Conc 0.3 uM): 1.107 and 0.8812 and 1.122; BCL2L1 relative mRNA level (BCL2L1 mRNA; Conc 1 uM): 0.4863 and 0.4646 and 0.4492; mRNA level of BCL2 (in words) (BCL2 mRNA; 293T cells, 16 h, qPCR): no significant changes; BCL2 relative mRNA level (BCL2 mRNA; Conc 0.01 uM): 0.9178 and 0.833 and 0.8657; BCL2 relative mRNA level (BCL2 mRNA; Conc 0.03 uM): 0.9696 and 0.9441 and 0.8908; BCL2 relative mRNA level (BCL2 mRNA; Conc 0.1 uM): 0.9355 and 1.085 and 0.9882; BCL2 relative mRNA level (BCL2 mRNA; Conc 0.3 uM): 1.098 and 0.9619 and 1.036; BCL2 relative mRNA level (BCL2 mRNA; Conc 1 uM): 0.9189 and 0.5421 and 0.5846
Cc1ncsc1-c1ccc([C@H](C)NC(=O)[C@@H]2C[C@@H](O)CN2C(=O)[C@@H](NC(=O)CCCCCCC(=O)N2CCN(C[C@@]3(C)CCC(c4ccc(Cl)cc4)=C(CN4CCN(c5ccc(C(=O)NS(=O)(=O)c6ccc(N[C@H](CCN7CCOCC7)CSc7ccccc7)c(S(=O)(=O)C(F)(F)F)c6)cc5)CC4)C3)CC2)C(C)(C)C)cc1 [753a] | 3.986 and 4.005 and 4.171 | 4.213 and 3.959 and 4.208 | 3.759 and 4.052 and 4.1349 | 3.935 and 4.221 and 4.234 | 4.374 and 4.4563 and 4.486 | 3.4969 and 3.9866 and 3.982 | 5.182 and 5.692 and 5.227 | 5.4197 and 6.174 and 5.638 | 4.944 and 5.21 and 4.816 | 5.936 and 5.165 and 5.723 | 6.144 and 5.244 and 5.817 | 5.728 and 5.085 and 5.6284 | 4.911 and 5.007 and 4.802 | 5.2892 and 5.222 and 5.13 | 4.533 and 4.7919 and 4.4737 | 5.075 and 4.7947 and 5.072 | 5.352 and 5.171 and 5.538 | 4.798 and 4.419 and 4.6068 | 
